How the values were obtained:
Assay type in all cases: cell-based
[1] = biological target: T1, F876L mutant Androgen Receptor (AR-F876L) (Homo sapiens (Human), UniProt P10275, F877L); experiment: LNCaP-AR-F876L ANT reporter assay (antagonist mode); conditions: antagonist mode; for Emax: maximum % inhibition of R1881 control response over tested concentration range, read-out: LNCaP-AR-F876L ANT MAX % Inh; for IC50: pIC50 = −Log10(IC50 in Molar), read-out: LNCaP-AR-F876L ANT pIC50 (converted)
[2] = biological target: T2, wild-type Androgen Receptor (AR-wt) (Homo sapiens (Human), UniProt P10275); experiment: LNCaP-AR-wt AG reporter assay (agonist mode); conditions: agonist mode; for Emax: maximum % stimulation over tested concentration range, read-out: LNCaP-AR-wt AG MAX % Stim; for EC50: pEC50 = −Log10(EC50 in Molar), read-out: LNCaP-AR-wt AG pEC50 (converted)
[3] = biological target: T2, wild-type Androgen Receptor (AR-wt); experiment: LNCaP-AR-wt ANT reporter assay (antagonist mode); conditions: antagonist mode; for Emax: maximum % inhibition of R1881 control response over tested concentration range, read-out: LNCaP-AR-wt ANT MAX % Inh; for IC50: pIC50 = −Log10(IC50 in Molar), read-out: LNCaP-AR-wt ANT pIC50 (converted)
[4] = biological target: T1, F876L mutant Androgen Receptor (AR-F876L); experiment: LNCaP-AR-F876L AG reporter assay (agonist mode); conditions: agonist mode; for Emax: maximum % stimulation over tested concentration range, read-out: LNCaP-AR-F876L AG MAX % Stim; for EC50: pEC50 = −Log10(EC50 in Molar), read-out: LNCaP-AR-F876L AG pEC50 (converted)

T2 sequence (P10275 whole entry): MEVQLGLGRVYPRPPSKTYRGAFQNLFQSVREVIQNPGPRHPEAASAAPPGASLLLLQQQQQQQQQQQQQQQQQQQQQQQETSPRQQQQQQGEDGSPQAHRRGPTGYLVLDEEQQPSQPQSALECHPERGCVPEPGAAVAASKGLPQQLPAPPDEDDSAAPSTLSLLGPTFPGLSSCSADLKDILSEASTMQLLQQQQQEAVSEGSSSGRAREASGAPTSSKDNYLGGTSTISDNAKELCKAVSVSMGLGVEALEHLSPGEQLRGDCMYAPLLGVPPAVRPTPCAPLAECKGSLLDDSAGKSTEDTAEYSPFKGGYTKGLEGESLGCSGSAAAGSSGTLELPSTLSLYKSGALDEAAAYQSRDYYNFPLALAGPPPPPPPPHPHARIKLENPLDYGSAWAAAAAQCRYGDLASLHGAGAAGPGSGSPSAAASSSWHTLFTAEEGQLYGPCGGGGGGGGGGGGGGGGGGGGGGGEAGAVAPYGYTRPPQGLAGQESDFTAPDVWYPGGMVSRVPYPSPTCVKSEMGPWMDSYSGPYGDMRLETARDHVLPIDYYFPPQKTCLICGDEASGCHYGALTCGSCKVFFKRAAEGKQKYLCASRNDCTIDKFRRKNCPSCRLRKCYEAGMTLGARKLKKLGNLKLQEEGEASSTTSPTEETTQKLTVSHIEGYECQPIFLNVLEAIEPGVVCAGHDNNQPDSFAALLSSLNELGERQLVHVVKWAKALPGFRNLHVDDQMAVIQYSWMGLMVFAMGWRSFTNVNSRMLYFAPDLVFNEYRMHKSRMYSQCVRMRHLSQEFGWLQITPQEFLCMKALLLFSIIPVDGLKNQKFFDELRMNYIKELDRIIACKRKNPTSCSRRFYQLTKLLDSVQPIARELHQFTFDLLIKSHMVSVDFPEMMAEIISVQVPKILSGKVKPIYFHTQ
T1 sequence (P10275 whole entry F877L): as the sequence (P10275 whole entry) above, with F877L counted along it

Structure (SMILES)	Emax [1] [%]	IC50 [1] [nM]	Emax [2] [%]	EC50 [2] [nM]	Emax [3] [%]	IC50 [3] [nM]	Emax [4] [%]	EC50 [4] [nM]
COc1cc(N2C(=O)C3(CCC3)N(c3ccc4c(cnn4C4CCNCC4)c3)C2=S)cnc1C#N [Cpd 211, 3-methoxy-5-[5-oxo-8-[1-(4-piperidyl)indazol-5-yl]-7-thioxo-6,8-diazaspiro[3.4]octan-6-yl]pyridine-2-carbonitrile]	101	363	0.5	> 15100	101	1050	0.1	> 15100
COc1cc(N2C(=O)C3(CCC3)N(c3ccc4c(cnn4C4CCN(C(C)=O)CC4)c3)C2=S)cnc1C#N [Cpd 212, 5-[8-[1-(1-acetyl-4-piperidyl)indazol-5-yl]-5-oxo-7-thioxo-6,8-diazaspiro[3.4]octan-6-yl]-3-methoxy-pyridine-2-carbonitrile]	96.1	331	0.2	> 15100	102	135	1.5	> 15100
COc1cc(N2C(=O)C3(CCC3)N(c3ccc4c(cnn4C4CCN(C)CC4)c3)C2=S)cnc1C#N [Cpd 213, 3-methoxy-5-[8-[1-(1-methyl-4-piperidyl)indazol-5-yl]-5-oxo-7-thioxo-6,8-diazaspiro[3.4]octan-6-yl]pyridine-2-carbonitrile]	100	282	0.2	> 15100	102	550	0.1	> 15100
COc1cc(N2C(=O)C3(CCC3)N(c3ccc4nn(C5CCN(C)CC5)cc4c3)C2=S)cnc1C#N [Cpd 215, 3-methoxy-5-[8-[2-(1-methyl-4-piperidyl)indazol-5-yl]-5-oxo-7-thioxo-6,8-diazaspiro[3.4]octan-6-yl]pyridine-2-carbonitrile]	101	240	0	> 15100	101	347	0.1	> 15100
CN1CC(CNC(=O)c2ccc(N3C(=S)N(c4cnc(C#N)c(C(F)(F)F)c4)C(=O)C34CCC4)cc2)C1 [Cpd 216, 4-[6-[6-cyano-5-(trifluoromethyl)-3-pyridyl]-5-oxo-7-thioxo-6,8-diazaspiro[3.4]octan-8-yl]-N-[(1-methylazetidin-3-yl)methyl]benzamide]	98.7	1480	0.1	> 15100	98.8	1620	0	> 15100
N#Cc1ncc(N2C(=O)C3(CCC3)N(c3ccc(CN4CCOCC4)cc3)C2=S)cc1C(F)(F)F [Cpd 217, 5-[8-[4-(morpholinomethyl)phenyl]-5-oxo-7-thioxo-6,8-diazaspiro[3.4]octan-6-yl]-3-(trifluoromethyl)pyridine-2-carbonitrile]	100	355	0.4	> 15100	102	372	0.1	> 15100
CN1CC[C@H](CNC(=O)c2ccc(N3C(=S)N(c4cnc(C#N)c(C(F)(F)F)c4)C(=O)C34CCC4)cc2F)C1 [Cpd 218, 4-[6-[6-cyano-5-(trifluoromethyl)-3-pyridyl]-5-oxo-7-thioxo-6,8-diazaspiro[3.4]octan-8-yl]-2-fluoro-N-[[(3R)-1-methylpyrrolidin-3-yl]methyl]benzamide]	99.6	912	0	> 15100	102	1170	0.1	> 15100
CN1CCN(Cc2ccc(N3C(=S)N(c4cnc(C#N)c(Cl)c4)C(=O)C34CCC4)cc2)CC1 [Cpd 219, 3-chloro-5-[8-[4-[(4-methylpiperazin-1-yl)methyl]phenyl]-5-oxo-7-thioxo-6,8-diazaspiro[3 4]octan-6-yl]pyridine-2-carbonitrile]	101	347	0.3	> 15100	102	372	0.2	> 15100
N#Cc1ncc(N2C(=O)C3(CCC3)N(c3ccc(CN4CCN(C5CC5)CC4)cc3)C2=S)cc1C(F)(F)F [Cpd 220, 5-[8-[4-[(4-cyclopropylpiperazin-1-yl)methyl]phenyl]-5-oxo-7-thioxo-6,8-diazaspiro[3.4]octan-6-yl]-3-(trifluoromethyl)pyridine-2-carbonitrile]	101	589	0.1	> 15100	102	741	0.1	> 15100
N#Cc1ncc(N2C(=O)C3(CCC3)N(c3ccc(C(=O)NCC4CCNCC4)c(F)c3)C2=S)cc1C(F)(F)F [Cpd 221, 4-[6-[6-cyano-5-(trifluoromethyl)-3-pyridyl]-5-oxo-7-thioxo-6,8-diazaspiro[3.4]octan-8-yl]-2-fluoro-N-(4-piperidylmethyl)benzamide]	100	589	-0.1	> 15100	101	891	0.1	> 15100
N#Cc1ncc(N2C(=O)C3(CCC3)N(c3ccc(CN4CCN(CCO)CC4)cc3)C2=S)cc1C(F)(F)F [Cpd 227, 5-[8-[4-[[4-(2-hydroxyethyl)piperazin-1-yl]methyl]phenyl]-5-oxo-7-thioxo-6,8-diazaspiro[3.4]octan-6-yl]-3-(trifluoromethyl)pyridine-2-carbonitrile]	100	417	-0.2	> 15100	102	513	0.1	> 15100
N#Cc1ncc(N2C(=O)C3(CCC3)N(c3ccc(CN4CCNC(=O)C4)cc3)C2=S)cc1C(F)(F)F [Cpd 228, 5-[5-oxo-8-[4-[(3-oxopiperazin-1-yl)methyl]phenyl]-7-thioxo-6,8-diazaspiro[3.4]octan-6-yl]-3-(trifluoromethyl)pyridine-2-carbonitrile]	101	115	-0.2	> 15100	102	209	0.1	> 15100

More lines, now with the values ahead:

Emax [1] [%]	IC50 [1] [nM]	Emax [2] [%]	EC50 [2] [nM]	Emax [3] [%]	IC50 [3] [nM]	Emax [4] [%]	EC50 [4] [nM]	Structure (SMILES)
99.9	219	0.3	> 15100	100	288	0	> 15100	COc1cc(N2C(=O)C3(CCC3)N(c3ccc4nn(C5CCNCC5)cc4c3)C2=S)cnc1C#N [Cpd 214, 3-methoxy-5-[5-oxo-8-[2-(4-piperidyl)indazol-5-yl]-7-thioxo-6,8-diazaspiro[3.4]octan-6-yl]pyridine-2-carbonitrile]
100	1480	0	> 15100	101	1780	0.1	> 15100	N#Cc1ncc(N2C(=O)C3(CCC3)N(c3ccc(CN4CCC(N)CC4)cc3)C2=S)cc1C(F)(F)F [Cpd 224, 5-[8-[4-[(4-amino-1-piperidyl)methyl]phenyl]-5-oxo-7-thioxo-6,8-diazaspiro[3.4]octan-6-yl]-3-(trifluoromethyl)pyridine-2-carbonitrile]
101	562	0.2	> 15100	101	1070	0.1	> 15100	Cc1cc(N2C(=O)C3(CCC3)N(c3ccc(CC4CCNCC4)cc3)C2=S)cnc1C#N [Cpd 235, 3-methyl-5-[5-oxo-8-[4-(4-piperidylmethyl)phenyl]-7-thioxo-6,8-diazaspiro[3 4]octan-6-yl]pyridine-2-carbonitrile]
101	269	0.6	> 15100	103	457	0.2	> 15100	COc1cc(N2C(=O)C3(CCC3)N(c3ccc(CC4CCNCC4)cc3)C2=S)cnc1C#N [Cpd 236, 3-Methoxy-5-[8-oxo-5-(4-piperidin-4-ylmethyl-phenyl)-6-thioxo-5,7-diaza-spiro[3.4]oct-7-yl]-pyridine-2-carbonitrile]
100	468	0.4	> 15100	104	832	0.1	> 15100	CN1CCC(Cc2ccc(N3C(=S)N(c4cnc(C#N)c(C(F)(F)F)c4)C(=O)C34CCC4)cc2)CC1 [Cpd 237, 5-[8-[4-[(1-methyl-4-piperidyl)methyl]phenyl]-5-oxo-7-thioxo-6,8-diazaspiro[3.4]octan-6-yl]-3-(trifluoromethyl)pyridine-2-carbonitrile]
101	813	0	> 15100	101	1410	0.1	> 15100	Cc1cc(N2C(=O)C3(CCC3)N(c3ccc(CC4CCN(C)CC4)cc3)C2=S)cnc1C#N [Cpd 238, 3-methyl-5-[8-[4-[(1-methyl-4-piperidyl)methyl]phenyl]-5-oxo-7-thioxo-6,8-diazaspiro[3.4]octan-6-yl]pyridine-2-carbonitrile]

— patent publication US10981926B2 (Janssen Pharmaceutica NV, priority 2016, dated 2021)
